Data taken from patent publication US20080299131A1, “Anti-Viral Compositions” (priority 2004, published 2008).
“Also recorded” adds a separate entry of the source.

Legend:
[1] = Tolerability of polyanions administered to mice; settings: for adverse effects after intraperitoneal injection: unpublished data; for weight loss or illness after intranasal administration: up to 2 mg/mouse intranasally
EEV [2] = format: cell-based, Vaccinia virus strain WR
VACV strain WR [3] = format: in vivo, mice; settings: 3×10^3 pfu, polyanion intranasally on one and three days post-infection
VACV strain WR [4] = format: in vivo, mice; settings: 2 mg polyanion intranasally 2 days post-infection; for benefit with polyanion in mice that received human IgG: Hu anti-VV Ab 500 μg; for weight loss after infection, polyanion alone: non-immune IgG, 1×10^4 pfu
[5] = tested on: VACV harvested from supernatant of infected cells (predominantly EEV); format: cell-based, Vaccinia virus strain WR
[6] = tested on: VACV strain WR-induced actin tails; format: cell-based, Vaccinia virus strain WR
[7] = tested on: VACV (most likely IMV form); settings: DS per se at 80 μg/ml; cited from earlier work
EEV membrane = tested on: EEV membrane; set-up: species or system Vaccinia virus strain WR
VACV strain WR [8] = format: cell-based, Vaccinia virus strain WR
VACV strain WR [9] = tested on: VACV strain WR; set-up: species or system mice; settings: mouse, in vivo
EEV [10] = format: cell-based, Vaccinia virus
CEV outer membrane = format: cell-based, Vaccinia virus strain WR

Row | Substance | adverse effects after intraperitoneal injection [1] | relative effectiveness at rendering EEV sensitive to anti-IMV antibody (EEV [2]) | weight loss or illness after intranasal administration [1] | virus infectivity in the supernatant (EEV [2]) | benefit in vivo at lower virus challenge (VACV strain WR [3]) | protection with polyanion in mice passively immunised with rabbit anti-IMV IgG (VACV strain WR [4]) | benefit with polyanion in mice that received human IgG (VACV strain WR [4]) | weight loss after infection, polyanion alone (VACV strain WR [4]) | infectivity of virus in the supernatant of VACV-infected cells [5] | neutralizing activity of both antisera [5] | actin tails formed in cells that made actin tails [6] | cells found to make actin tails [6] | other results
1 | dextran sulphate [DS-HMW] | did not affect the mice adversely | more potent than HP and DS; also recorded: more effective than DS with lower molecular weight | – | – | – | – | – | – | – | – | – | – | body weight reduction ([1]; 2 mg/mouse intranasally, after 2 days): 15%; weight loss or illness after intranasal administration ([1]; listed as high MW DS): increased respiratory effort, followed by breathing difficulty
2 | heparin [HP-HWM] | – | more potent than HP and DS; also recorded: more effective than heparin with lower molecular weight | – | – | – | – | – | – | – | – | – | – | –
3 | dextran sulphate [DS] | – | – | did not cause weight loss or illness | abolished virus infectivity | confirmed | potentiated the therapeutic effect of this Ab | less effective | slightly less weight loss | did not reduce the infectivity | 56-63% | significantly fewer actin tails were formed | 15% | inhibition of VACV [7]: only partially inhibit VACV
4 | heparin [HP] | did not affect the mice adversely | more effective at the dose tested than desulphated HP | did not cause weight loss or illness | abolished virus infectivity | confirmed | provided protection to a level equivalent to rabbit IgG generated against live infection | provided similar benefit | slightly less weight loss | did not reduce the infectivity | 55-61% | significantly fewer actin tails were formed | 15% | surface of virions associated with EEV membrane (EEV membrane): 46.4%; titre of virus released into the culture medium (VACV strain WR [8]): no significant difference; titre of virus that remained cell-associated (VACV strain WR [8]): no significant difference; reduction of level of virus in lungs (VACV strain WR [9]): about 10 fold; reduction of levels of virus in the brain (VACV strain WR [9]): > 100 fold; virus titres, HP in absence of anti-VACV Ab (VACV strain WR [9]): titres were lower than in the absence of HP; binding of virus (EEV [10]): neither binding nor entry of virus was affected significantly; entry of virus (intracellular cores) (EEV [10]): neither binding nor entry of virus was affected significantly; actin tails seen by EM (CEV outer membrane): actin tails were rarely seen; outer membrane of CEV bound to the cell surface (CEV outer membrane): disrupted the outer membrane of CEV
